The source of these data is patent US20140187538A1, “LORCASERIN HYDROCHLORIDE” (DR. REDDY'S LABORATORIES LTD., priority 2012, published 2014).

SMILES strings stand for the structures.

The data set can be described thus: physical stability of the amorphous solid form (tendency to crystallize over time). It is filed as physicochemical. Conditions: solid state; amorphous drug substance alone vs amorphous solid dispersion; crystallization over a period of time.

With `C[C@H]1CNCCc2ccc(Cl)cc21.Cl` [amorphous lorcaserin hydrochloride], the physical stability entry was “limited physical stability”.
